Test [1] concerns JNK2. Briefly: Phosphorylation of immunoprecipitated myc-JNK2 in JEG-3 cells. The test is classed as cell-based, human. To be noted: for activation (phosphorylation) of myc-JNK2: 100 nM; for effect of PTX pre-incubation on JNK phosphorylation: ligand 100 nM, PTX 16 h 200 ng/ml. The procedure: (§1) The activation of two other forms of mitogen-activated protein kinase (MAPK) was studied in JEG-3 and BPH-1 cells by overexpressing myc-tagged constructs of JNK2 or p38α. Immunoprecipitation of these constructs after GnRHR-ligand stimulation of either cell line allowed the degree of kinase activation to be assessed using antisera specific for the active, phosphorylated, form of the kinase. […] In both panel a and b, the dose of GnRH I employed was 100 nM. The respective histograms in each panel represent the mean±s.e. mean of three experimental replicate time courses.
The inset immunoblots depict the phosphorylation status of the immunoprecipitated JNK2 increasing while the level of total unphosphorylated protein (detected with α-JNK antisera) remains unchanged. The histogram below depicts the mean±s.e. mean of three experimental replicates of the above western blot. Stimulation of BPH-1 cells with the same range of ligands (Panel b) yields a similar pattern of MAPK activation, but in this case p38α. […] The inset immunoblots depict an increasing phosphorylation of p38α with no increase in total p38α protein. The histograin below depicts the mean±s.e. mean of three experimental replicates of the above western blot.
(§2) Stimulation of JNK in JEG-3 cells and p38 in BPH-1 cells and its sensitivity to pre-exposure to PTX was assessed by measuring the degree of activating phosphorylation of immunoprecipitated myc-JNK2 or myc-p38α. Panel a depicts a representative western blot of immunoprecipitated myc-JNK2 from JEG-3 cells stimulated with either GnRH I (100 nM) or Ant 135-25 (100 nM). The phosphorylation status of JNK was elevated by GnRH I and Ant135-25 with no significant alteration in total immunoprecipitated JNK levels (assessed by immunoblot with α-myc antisera). […] The histograms in panels b and c depict the mean±s.e. mean of three experimental replicates of the above western blot (panel a) experiments. Panel d depicts an identical experiment to that in panel a except that it is the phosphorylation status of immunoprecipitated myc-p38α that is being measured. […] The histograms in panels e and f depict the mean±s.e. mean of three experimental replicates of the above western blot (panel d) experiments.
Thus it appears that the ability of the GnRH-induced stimulation of either JEG-3 or BPH-1 cells is not correlated to their anti-proliferative action. […] Using specific antisera against the kinase active form of ERK5 (or BMK) we observed no specific activation of this form of MAPK however using antisera specifically recognising the active forms of either c-Jun N-terminal kinase (JNK) or p38 MAPK we noted that in JEG-3 cells there was a potent, yet delayed GnRH-induced activation of JNK and a similarly slow inset activation of p38 in the BPH-1 cells. The level of activation of the endogenous stress-activated protein kinases (SAPKs) was relatively small but greater than the GnRH-activated ERK levels in these cells. To further investigate the validity of the observed SAPK activation we transfected the tumour cell lines with myc-tagged JNK2 or p38α MAPK isoforms, stimulated the cells with GnRH and then immunoprecipitated with anti-myc sera and western blotted the immunoprecipitates for total JNK/p38 protein and active JNK/p38. In FIG. 7 (panel a) GnRH causes a demonstrable, time-dependent and protracted activation of the immunoprecipitated JNK2. Activation of JNK2 typically only occurred after 30 minutes of GnRH I stimulation. […] As with the activation of the JNK in the JEG-3 cells there was a considerable delay in the onset of the p38 activation unlike the ERK signalling events that typically occur and peak within 20 minutes of GnRH ligand application (FIG. 7, panel b).

For test [2], the system named is p38α. Briefly: Phosphorylation of immunoprecipitated myc-p38α in BPH-1 cells. To be noted: for activation (phosphorylation) of myc-p38α / effect of PTX pre-exposure on p38α activation: BPH-1 cells; for activation (phosphorylation) of myc-p38α: 100 nM; for effect of PTX pre-exposure on p38α activation: PTX 16 h 200 ng/ml. The format is cell-based, human. The procedure: as §1
The histogram below depicts the mean±s.e. mean of three experimental replicates of the above western blot. […] The histograin below depicts the mean±s.e. mean of three experimental replicates of the above western blot.
as §2, with “myc-p38α.” for “myc-p38α. Panel a depicts a representative western blot of immunoprecipitated myc-JNK2 from JEG-3 cells stimulated with either GnRH I (100 nM) or Ant 135-25 (100 nM). The phosphorylation status of JNK was elevated by GnRH I and Ant135-25 with no significant alteration in total immunoprecipitated JNK levels (assessed by immunoblot with α-myc antisera).”
To further investigate the validity of the observed SAPK activation we transfected the tumour cell lines with myc-tagged JNK2 or p38α MAPK isoforms, stimulated the cells with GnRH and then immunoprecipitated with anti-myc sera and western blotted the immunoprecipitates for total JNK/p38 protein and active JNK/p38.

The subject of test [3] is HEK293 cells stably expressing the Type I GnRHR (SCL60). Briefly: Anti-proliferative effect on SCL60 cells, viable cell count after 5 days. The format is cell-based, human. To be noted: 5 days continuous treatment, trypan blue exclusion. Here is the method: An identical methodology of measuring cell growth was employed as in FIG. 1.
(§3) Each cell type was plated at an initial minimal confluency (10-20%) to allow for 5 days of normal continual cell growth that would not result in 100% cell confluency by day 5. Each ligand was incubated, in triplicate for every experimental concentration, with the cell monolayers for five days with replacement of the ligand every 12 h. At the end of the stimulation period the number of viable cells was estimated by their capacity to prevent uptake of Trypan Blue stain.
We further investigated the nature of the ligand-receptor specificity of the anti-proliferative effects of GnRH receptor systems by studying our ligand panel effects upon a model cell background, i.e. SCL60 HEK293 cells stably expressing the rat Type I GnRHR. […] We attribute this greater effect of the GnRHR ligands upon the SCL60 cells to the much greater level of receptor expression in the SCL60 cells.

Test [4] has as its system human benign prostate hyperplastic (BPH-1) cells. Briefly: Anti-proliferative effect on BPH-1 cells, viable cell count after 5 days. The test is classed as cell-based. To be noted: 5 days continuous treatment, trypan blue exclusion. Here is the method: Low cell density BPH-1 cell subcultures were treated for 5 days continuously with the indicated doses of GnRH I (a), GnRH II (b), Ant 135-18 (c) or Ant 135-25 (d) added directly to RPMI 1640 medium supplemented with 10% FCS, glutamine and penicillin/streptomycin. Ligands were replenished every 24 h. At the end of the stimulation period cells were removed form the growth plates by trypsin and mixed with trypan blue dye (enters non-viable cells). Only viable cells were therefore counted using a haemocytometer in quadruplicate for each ligand dose. The bars in each histogram represent the mean±s.e. mean of n=4 experiments.
as §3
Employing an identical growth and stimulation methodology to that described in the previous paragraph and in FIG. 1 we exposed the hyperplastic cell line, BPH-1, to the same panel of GnRH ligands and antagonistic analogues (FIG. 2). Reminiscent of FIG. 1 both endogenous GnRH agonists exert a similar mode of action with respect to their dose-dependent inhibition of BPH-1 cell growth over the five day stimulation period.

The results in this text go back to patent US7361633B2, “Screening method and anti-tumor drug candidate obtained therefrom” (Ardana Bioscience Limited, priority 2002, dated 2008).

“Also recorded” adds a separate entry of the source. Some results are limits rather than exact numbers.

On to `C[S+]([O-])c1ccc(-c2nc(-c3ccncc3)c(-c3ccc(F)cc3)[nH]2)cc1` (stereo not drawn) [SB203580], for which the “effect on GnRH I stimulation of JNK” value in test [1] (20 μM SB203580, data not shown) was “effectively abrogates the ability of GnRH I to stimulate JNK”. The “effect on GnRH-mediated activation of p38α” value in test [2] is “significantly blunted the GnRH-mediated activation of p38α”.

As for “Ac-D-Nal(2)-D-4-ClPhe-D-Pal-Ser-1-MePal-D-IsopropylLys-Leu-IsopropylLys-Pro-D-AlaNH2 [Ant 135-25]”, in test [3], the “anti-proliferative effect (viable cell number)” value (“anti-proliferative effect” below) is reported as “greater anti-proliferative efficacy”. Also, in test [3] (listed as Ant135-25), the “anti-proliferative effect” value is given as “nearly an as efficacious action as either GnRH I or GnRH II”. The “anti-proliferative effect” value in test [4] is listed as “anti-proliferative effect upon BPH-1 cells with a similar potency to that of GnRH I”. Besides, in test [1], the “activation (phosphorylation) of myc-JNK2” value was “can efficiently activate the myc-JNK2 construct” and the “effect of PTX pre-incubation on JNK phosphorylation” value is on record as “abolished with the PTX pre-incubation”. In test [2], the “activation (phosphorylation) of myc-p38α” value is “effectively activate p38α” and the “effect of PTX pre-exposure on p38α activation” value was “acutely sensitive to the pre-exposure of PTX”.

For the compound “Ac-D-Nal(2)-D-4-ClPhe-D-Pal-Ser-Ile-D-IsopropylLys-Leu-IsopropylLys-Pro-D -AlaNH2 [Ant 135-18]”, the “anti-proliferative effect” value in test [3] is “low efficacy compared to the other ligands”; in test [3] (listed as Ant135-18), “relatively ineffective at inhibiting the SCL60 cell proliferation”; in test [4], “much lower potency and efficacy compared to Ant 135-25 and GnRH I”; in test [4] (listed as Ant135-18), “low ant-proliferative potency”. Moreover, the “activation (phosphorylation) of myc-JNK2” value in test [1] is listed as “fails to efficiently activate JNK”; in test [1] (listed as Ant135-18) it was “dramatically lower efficacy than GnRH I or Ant 135-25”. Moreover, the results for the “activation (phosphorylation) of myc-p38α” value in test [2] and in test [2] (listed as Ant135-18) were “does not” and “dramatically lower efficacy than GnRH I or Ant 135-25”, respectively.

For the compound “GnRH I: Gonadotropin-Releasing Hormone, a decapeptide; the original form of GnRH, re-named GnRH I”, the “anti-proliferative effect” value in test [3] was “greater anti-proliferative efficacy; also recorded: dramatic reduction in the cells growth rate and significant loss of total cell number”. The “anti-proliferative effect” value in test [4] was “potent and dose-dependent anti-proliferative effect; also recorded: more potent that GnRH II in its capacity to arrest cell growth”. Further, in test [1], the “time to onset of JNK2 activation” value was above 30 min, the “activation (phosphorylation) of myc-JNK2” value is listed as “significant activation of the immunoprecipitated myc-JNK2; also recorded: can efficiently activate the myc-JNK2 construct” and the “effect of PTX pre-incubation on JNK phosphorylation” value is recorded as “abolished with the PTX pre-incubation”. Besides, in test [2], the “activation (phosphorylation) of myc-p38α” value was “significant activation of myc-p38α; also recorded: effectively activate p38α; also recorded: protracted activation of the immunoprecipitated myc-p38α” and the “effect of PTX pre-exposure on p38α activation” value is reported as “acutely sensitive to the pre-exposure of PTX”.
